Paper PMC11773334, “Preparation and pharmacokinetic evaluation of a sertraline-methylpropyphenazone prodrug: a comparative metabolic study on the plasma and brain tissues of rats using LC-MS/MS analysis” (RSC Advances, 2025)

Columns and labels:
[1] = Rat plasma pharmacokinetics after oral administration (LC-MS/MS, noncompartmental model)
Protocol: Sildenafil was used as an internal standard (IS). […] The MS conditions were set as follows: the ESI temperature was 330 °C, nitrogen gas flow rate was 11 L min^−1, nebulizer pressure was 35 psi, and capillary voltage was 4000 V. The MS settings were optimized for each compound, including the fragmentor voltage, dwell time (sec), and collision energy voltage. […] A gradient elution program was applied using a mobile phase composed of methanol (solvent A) and 0.7 g L^−1 ammonium acetate trihydrate in water with 0.1% formic acid (solvent B). […] The mobile phase was pumped at a flow rate of 0.4 mL min^−1. The equilibration duration was 7.0 min. The sample injection volume was 5 μL. The total running time for the analysis was 20 min. […] The SPE column was conditioned with 1 mL methanol and 2 mL of 0.1% aqueous ammonia solution. […] The SPE column was gently clicked to mix the solution, then allowed to elute just below the stationary phase surface before being trapped for 1 min in the stationary phase. The column was then washed with 1 mL of 0.1% ammonia solution, forcing nitrogen to eject water from the SPE column. The column was connected to a new port via a clean test tube, and the analytes were eluted using 3 mL ethyl acetate: n-hexane (2 : 1, v/v) and 1 mL methanol. […] The residue was dissolved in 50 μL methanol, and a 5 μL volume was injected for LC-MS/MS analysis. […] The results were expressed as the mean ± SD. The evaluated parameters included Cmax (maximum concentration), Tmax (time to reach Cmax), t1/2 (half-life), Ke (elimination rate constant), AUC (area under the concentration–time curve), AUMC (area under the first moment curve), and MRT (mean residence time). The data were analyzed using Kinetica® software, employing a noncompartmental analysis approach. […] The pharmacokinetic parameters between the groups were compared using an unpaired two-tailed t-test. Statistical significance was defined as P < 0.05.

[2] = QC sample stability in spiked rat plasma; type: in vitro ADME
Protocol: The working solutions were prepared separately for obtaining a 100 μg mL^−1 concentration. Calibration standards were generated from the working solution by spiking control plasma (100 μL) with a standard mixture to get the final concentrations: 25, 100, 250, 500, 1000, and 2000 ng mL^−1 plasma of each analyte. […]
Solid-phase extraction (SPE) was performed on the calibration standards prepared in plasma, quality control (QC) samples, rat plasma, and brain homogenate samples using Chromabond ® C8-100 mg columns (Macherey Nagel, Düren, Germany). […] The SPE column was filled with 25 μL of 0.1% aqueous ammonia solution, 100 μL plasma or brain homogenate, and 50 μL IS (20 ng μL^−1). […] The eluant was dried with nitrogen gas at room temperature, then reconstituted in 300 μL methanol, vortex, and transferred to a 0.9 mL total recovery autosampler vial, and dried with nitrogen gas.
(§1) The linearity of the targeted analytes was evaluated at six concentration levels spanning the range of 25–2000 ng mL^−1, and the calibration parameters were calculated. The method's accuracy was determined by calculating the estimated value for each QC sample compared with the actual concentration. The precision was assessed by analysis of QC samples at different concentrations (25.0, 500.0, and 2000.0 ng mL^−1) on separate days. The lowest point in the calibration curve was defined as the lower limit of quantification (LLOQ), which was determined to be at an acceptable accuracy and precision. The recovery of the extractions was evaluated by comparing the areas under the peak of the extracted samples with a non-extracted standard solution. Also, the matrix effect was evaluated by comparing the plasma sample spiked with the analyte with corresponding standard solutions at the same concentrations. Finally, the stability of the sample was investigated at three concentration levels, applying the same chromatographic conditions. The stability tests included long-term, short-term, and freeze-thaw stability.

[3] = Stability of standard solutions under storage conditions; type: physicochemical; conditions: room temperature for 6 h and 4 °C for 12 h
Protocol: as §1
Standard solutions were maintained at room temperature for 6 h and 4 °C for 12 h, and then analyzed using the developed method. […] Recoveries remained above 89%, and the standard deviation (SD%) values were below 3%, as detailed in Table 3.

[4] = cited from earlier work
[5] = Concentration in rat brain homogenate after oral administration (LC-MS/MS); type: in vivo, Wistar rats; conditions: 0.5 to 192 h after oral SER-MP
Protocol: Sildenafil was used as an internal standard (IS). […] The gradient program was configured as follows: 68% A from 0 to 2 min, raised to 96% A at 4.0 min, sustained at 96% A until 13 min, and then reverting back to 68% A at 13.1 min. […] The equilibration duration was 7.0 min. The sample injection volume was 5 μL.

rat serotonin (ST) = assay: Analysis of serotonin in brain homogenate (ELISA sandwich kit); conditions: SER: within 1 to 3 h after oral administration, Fig. 6
Protocol: Wistar rats weighing 250 ± 30 g were included in the study. […] Phosphate-buffered saline (PBS) was utilized as a matrix to homogenize the brain samples. Both the brain and blood samples were frozen at −80 °C until their analysis.
An enzyme-linked immunosorbent assay (ELISA) sandwich kit was used in this study as it is known that it can accurately quantify rat serotonin (ST) in serum, plasma, cell culture supernatants, ascites, tissue homogenates, and other biological fluids. In the assay, first the plate was pre-coated with a rat ST antibody. When ST is present in the sample, it binds to the antibodies on the wells. Next, a biotinylated rat ST antibody was added, which binds to the ST in the sample. Streptavidin-HRP was then added, binding to the biotinylated ST antibody. After incubation, the unbound Streptavidin-HRP was washed away. […] The reaction was terminated by adding an acidic stop solution, and then the absorbance was measured at 450 nm.

[6] = rat plasma, oral SER-MP 16.0 mg kg^−1 (equimolar to SER dose), analyte SER-MP or released metabolite

SMILES: CC(C)c1c(CN[C@H]2CC[C@@H](c3ccc(Cl)c(Cl)c3)c3ccccc32)n(C)n(-c2ccccc2)c1=O [nor-methyl-SER-MP]
- Time retained in the plasma ([1]; rat plasma after oral SER-MP, major metabolite): 195 h

SMILES: CN[C@H]1CC[C@@H](c2ccc(Cl)c(Cl)c2)c2ccccc21 [SER, (1S,4S)-4-(3,4-dichlorophenyl)-N-methyl-1,2,3,4-tetrahydronaphthalen-1-amine]
- Average recovery (%) ± SD, Autosampler (25 °C/24 h) ([2]; 50.0 ng mL^−1): 92.98 ± 1.35%
- Average recovery (%) ± SD, Freeze-thaw (−20 °C/3 cycles) ([2]; 50.0 ng mL^−1): 91.04 ± 2.95%
- Average recovery (%) ± SD, Autosampler (25 °C/24 h) ([2]; 500.0 ng mL^−1): 93.23 ± 0.98%
- Average recovery (%) ± SD, Freeze-thaw (−20 °C/3 cycles) ([2]; 500.0 ng mL^−1): 90.68 ± 3.92%
- Average recovery (%) ± SD, Autosampler (25 °C/24 h) ([2]; 2000.0 ng mL^−1): 91.15 ± 2.20%
- Average recovery (%) ± SD, Freeze-thaw (−20 °C/3 cycles) ([2]; 2000.0 ng mL^−1): 89.23 ± 4.00%
- Stability of standard solutions (change in peak area) [3]: No significant changes in peak area values
- Fraction excreted as metabolites [4]: About 40%
- Fraction in plasma bound to proteins [4]: About 98%

SMILES: N[C@H]1CC[C@@H](c2ccc(Cl)c(Cl)c2)c2ccccc21 [N-desmethyl-SER, N-Desmethyl-sertraline]
- Half-life (t1/2) ([4]; in vivo): 66 to 80 h

SMILES: CC(C)c1c(CN(C)C2CCC(c3ccc(Cl)c(Cl)c3)c3ccccc32)n(C)n(-c2ccccc2)c1=O (stereo not shown) [SER-MP, sertraline-methylpropyphenazone]
- Concentration of SER-MP in rat brain [5]: ~100 ng/g
- Average recovery (%) ± SD, Autosampler (25 °C/24 h) ([2]; 50.0 ng mL^−1): 97.45 ± 0.78%
- Average recovery (%) ± SD, Freeze-thaw (−20 °C/3 cycles) ([2]; 50.0 ng mL^−1): 95.70 ± 1.76%
- Average recovery (%) ± SD, Autosampler (25 °C/24 h) ([2]; 500.0 ng mL^−1): 98.76 ± 1.03%
- Average recovery (%) ± SD, Freeze-thaw (−20 °C/3 cycles) ([2]; 500.0 ng mL^−1): 96.84 ± 0.68%
- Average recovery (%) ± SD, Autosampler (25 °C/24 h) ([2]; 2000.0 ng mL^−1): 98.88 ± 0.80%
- Average recovery (%) ± SD, Freeze-thaw (−20 °C/3 cycles) ([2]; 2000.0 ng mL^−1): 94.99 ± 2.09%
- Stability of standard solutions (change in peak area) [3]: No significant changes in peak area values
- Course of serotonin level in the brain after a single oral dose (rat serotonin (ST)): approximately steady level
- half-life ([1]; Wistar, rat, plasma, po, 16 mg kg^−1, t1/2 (half-life), rat plasma, oral SER-MP 16.0 mg kg^−1 (equimolar to SER dose), analyte SER-MP or released metabolite): 50 h
- Cmax ([1]; Wistar, rat, plasma, po, 16 mg/kg, Cmax (maximum plasma concentration), rat plasma, oral SER-MP 16.0 mg kg^−1 (equimolar to SER dose), analyte SER-MP or released metabolite): 192 ng/mL
- Cmax (maximum plasma concentration) [1, 6]: 192.11 ng/mL
- Total clearance rate [1, 6]: 4.32 mL/day/kg
- t1/2 (half-life) [1, 6]: 49.97 h

SMILES: CC(C)c1c(CO)n(C)n(-c2ccccc2)c1=O [3-OHMP, 3-hydroxymethylpropyphenazone]
- Average recovery (%) ± SD, Autosampler (25 °C/24 h) ([2]; 50.0 ng mL^−1): 96.80 ± 0.98%
- Average recovery (%) ± SD, Freeze-thaw (−20 °C/3 cycles) ([2]; 50.0 ng mL^−1): 94.39 ± 2.98%
- Average recovery (%) ± SD, Autosampler (25 °C/24 h) ([2]; 500.0 ng mL^−1): 96.55 ± 1.20%
- Average recovery (%) ± SD, Freeze-thaw (−20 °C/3 cycles) ([2]; 500.0 ng mL^−1): 95.47 ± 1.57%
- Average recovery (%) ± SD, Autosampler (25 °C/24 h) ([2]; 2000.0 ng mL^−1): 95.24 ± 2.56%
- Average recovery (%) ± SD, Freeze-thaw (−20 °C/3 cycles) ([2]; 2000.0 ng mL^−1): 95.73 ± 1.93%
